Test [1] concerns prototrophic yeast strain (CEN.PK113-7D). In words: Yeast outgrowth in YPD liquid medium (CLS of aged cells). The format is cell-based, Saccharomyces cerevisiae. To be noted: concentration tested 100 μM; OD600 nm after 24 h in YPD at 30° C.; age point day 14. On the procedure:
(§1) CLS experiments were performed in 96-well plates with 200 μL yeast culture. Cellular inoculums were transferred into 96-well plates containing serially double-diluted concentrations (0 to 10 nM) of rapamycin. Cellular inoculum was transferred into 96-well plates containing serially double-diluted concentrations (0 to 8 mM) of 2,5-anhydro-D-mannitol, D-fructose, D-mannitol, D-maltose, and D-sorbitol in SD medium. Cells were incubated at 30° C., and the growth was measured at different time points. […] Cell survival was quantified at various age time points by three different approaches: (i) PI fluorescence-based method, (ii) outgrowth in YPD liquid medium, and (iii) spotting assay (FIG. 1).
Outgrowth (OD600) of aged cells was measured by the microplate reader. Quantification of cell survival for each age point was determined as relative to Day 1 (considered 100% cell survival). This quantification was performed by using the formula,
[formula] • where OutgrowthDay n refers to the OD600 nm absorbance reading recorded on a specific day, OutgrowthDay 1 refers to the OD600 nm absorbance reading recorded on the first day where 100% cell survival is assumed.
The CLS of the aged cells was further determined by the yeast outgrowth in YPD liquid medium method as described above. […] At chronological age point day 14, 3-μL of culture were transferred to a second 96-well plate containing 200 μL YPD medium.

For test [2] the test system is unchanged. In words: Propidium iodide fluorescence-based CLS method in yeast (incl. high-throughput screening).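 As to PI intensity: untreated reference is eight DMSO and water control wells per plate.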 Type of test: cell-based, Saccharomyces cerevisiae. To be noted: concentration tested 100 μM; for Yeast CLS increase: Yes/No call of the screen; for PI intensity: solvent DMSO or water, chronological age point Day 7 (72 h growth = Day 1), lower = more survival. The protocol: Yeast strain was recovered from frozen glycerol stock at 30° C. on YPD agar medium. Yeast was left to propagate in SD medium overnight at 30° C. with shaking at 220 revolutions per minute (rpm). Cells propagated overnight were diluted to a starting optical density at 600 nm (OD600) of approximately 0.2 in fresh SD medium to begin the chronological lifespan (CLS) experiments.
as §1
Yeast cells (40 μL) from different age time points were transferred into a second 96-well plate (different to the 96-well plate in which the CLS analysis as outlined above was performed). Cells were washed and incubated in 100 μL 1×phosphate buffered saline (PBS) with propidium iodide (PI) (5 μg/mL) for 15 minutes in the dark. Positive and negative control samples were included for quantitative analysis. Positive control (cells boiled at 100° C. for 15 minutes) was PI-stained and processed in the same 96-well plate. Samples without PI-stained cells served as the negative control. After incubation, cells were washed and resuspended in 100 μL PBS. The fluorescence reading of the samples (excitation and emission wavelengths at 535 nm and 617 nm, respectively) and OD600 were measured with a microplate reader (BioTek, Winooski, Vermont, United States). The fluorescence intensity of each sample was normalized with OD600. The background fluorescence signal of the unstained negative sample was subtracted from the normalized fluorescence intensity of each sample. The obtained fluorescence intensity of the positive control (boiled dead cells) was considered 0% cell survival. Cell death was validated by allowing the boiled dead cells to grow in medium. Cell survival at different age time points of samples were calculated by normalizing the fluorescence intensity with positive control sample (boiled cells).
High-throughput screening of various chemicals was tested using the same protocol for the propidium iodide fluorescence-based method as described above. The prototrophic yeast strain (CEN.PK113-7D) was grown in the synthetic defined medium with different chemical reagents at their respective single testing concentration (Table 1) in addition to eight replicates of DMSO and water controls in 96-well plates at 30° C.

Counter-ions that a name gives are not always drawn.

For `O=C[C@H](O)[C@@H](O)[C@H](O)[C@H](O)C(=O)O` [D-Glucuronic acid], in test [1], the Outgrowth was found to be 0.1. In addition, in test [2], the “Yeast CLS increase” value is “No” and the PI intensity is 48,839.6.
Taken in the same sequence, the figures for `C[C@@H]1CC[C@@]2(OC1)O[C@H]1C[C@H]3[C@@H]4CC=C5C[C@@H](O[C@@H]6O[C@H](CO)[C@@H](O[C@@H]7O[C@H](CO)[C@@H](O)[C@H](O)[C@H]7O)[C@H](O)[C@H]6O[C@@H]6O[C@@H](C)[C@H](O)[C@@H](O)[C@H]6O)CC[C@]5(C)[C@H]4CC[C@]3(C)[C@H]1[C@@H]2C` [Deltonin] were 0.1, “No” and 62,357.6.
In test [1], `O=C(O)Cc1ccccc1Nc1c(Cl)cccc1Cl` [Diclofenac (Sodium), reference compound] gave an Outgrowth of 0.2. Also, in test [2], the “Yeast CLS increase” value is “No” and the PI intensity is on record as 79,704.3.
Consider `CC(=O)OCC(=O)[C@@]1(OC(C)=O)[C@@H](C)C[C@H]2[C@@H]3C[C@H](F)C4=CC(=O)C=C[C@]4(C)[C@@]3(F)[C@@H](O)C[C@@]21C` [Diflorasone, reference compound], for which, in test [1], the Outgrowth came out at 0.1. Moreover, in test [2], the “Yeast CLS increase” value is recorded as “No” and the PI intensity is recorded as 71,051.3.
For `COS(=O)(=O)[O-].C[N+]1(C)CCC(=C(c2ccccc2)c2ccccc2)CC1` [Diphenmanil (methylsulfate), reference compound], the Outgrowth in test [1] is 0.1. In addition, in test [2], the “Yeast CLS increase” value was “No” and the PI intensity is on record as 78,623.4.
`CC1(C)[C@@H](O[C@H]2O[C@H](C(=O)[O-])[C@@H](O)[C@H](O)[C@H]2O[C@@H]2O[C@H](C(=O)[O-])[C@@H](O)[C@H](O)[C@H]2O)CC[C@]2(C)[C@H]3C(=O)C=C4[C@@H]5C[C@@](C)(C(=O)O)CC[C@]5(C)CC[C@@]4(C)[C@]3(C)CC[C@@H]12.[K+].[K+]` [Dipotassium glycyrrhizinate] returned an Outgrowth in test [1] of 0.1. In test [2], the “Yeast CLS increase” value was “No” and the PI intensity is listed as 68,519.8.
Take `C[C@@H](O)[C@H]1C(=O)N2C(C(=O)O)=C(S[C@@H]3CN[C@H](CNS(N)(=O)=O)C3)[C@H](C)[C@H]12` [Doripenem (monohydrate), reference compound]: the Outgrowth in test [1] is listed as 0.1. Besides, in test [2], the “Yeast CLS increase” value was “No” and the PI intensity is 69,608.7.
`CC[C@H]1CN2CCc3cc(OC)c(OC)cc3[C@@H]2C[C@@H]1C[C@H]1NCCc2cc(OC)c(OC)cc21` [Emetine (dihydrochloride hydrate), reference compound] yielded an Outgrowth in test [1] of 0.1. Besides, in test [2], the “Yeast CLS increase” value is “No” and the PI intensity is 75,341.5.
Taken in the same sequence, the figures for `CC1OC(OC2C(=O)c3c(O)cc(O)cc3OC2c2ccc(O)cc2)C(O)C(O)C1O` (centres unmarked) [Engeletin] were 0.9, “Yes” and 37,144.4.
The matching figures for `COc1cc2c(cc1OC)-c1cc3ccc4c(c3c[n+]1CC2)OCO4.[Cl-]` [Epiberberine (chloride)]: 1.3, “Yes” and 38,027.2.
In turn, `O=c1ccc2cc(O[C@@H]3O[C@H](CO)[C@@H](O)[C@H](O)[C@H]3O)c(O)cc2o1` [Esculin] displayed an Outgrowth in test [1] of 0.1. Moreover, in test [2], the “Yeast CLS increase” value was “No” and the PI intensity was 72,890.7.
Taken in the same sequence, the figures for `CCOC(=O)c1ccc(O)cc1` [Ethylparaben] were 0.1, “No” and 52,097.7.
The matching figures for `C=C1[C@H](OC(=O)c2ccccc2)C[C@H]2[C@@H](/C=C(\C)C(=O)[C@@]3(OC(C)=O)C[C@H](C)[C@H](OC(=O)c4ccccc4)[C@@H]3[C@H]1OC(C)=O)C2(C)C` [Euphorbia Factor L2]: 0.1, “No” and 68,871.8.
The matching figures for `Cc1cc2nc3c(=O)[nH]c(=O)nc-3n(C[C@H](O)[C@H](O)[C@H](O)COP(=O)(O)OP(=O)(O)OC[C@H]3O[C@@H](n4cnc5c(N)ncnc54)[C@H](O)[C@@H]3O)c2cc1C` [Flavin adenine dinucleotide (disodium salt)]: 0.2, “No” and 59,508.7.
Take `NC=O` [Formamide]: the Outgrowth in test [1] was determined as 0.1. For the same compound, in test [2], the “Yeast CLS increase” value is given as “No” and the PI intensity is on record as 64,135.2.
For the compound `O=C1NC(c2ccccc2)(c2ccccc2)C(=O)N1COP(=O)(O)O` [Fosphenytoin (disodium), reference compound], the Outgrowth in test [1] was 0.1. Also, in test [2], the “Yeast CLS increase” value was “No” and the PI intensity is given as 61,860.0.
The matching figures for `COC(=O)C1=CO[C@@H](O[C@@H]2O[C@H](CO)[C@@H](O)[C@H](O)[C@H]2O)[C@H]2[C@@H]1C=C[C@@]2(O)CO` [Gardenoside]: 0.1, “No” and 65,525.5.
Taken in the same sequence, the figures for `C=C[C@@H]1C2=CCOC(=O)C2=CO[C@H]1O[C@@H]1O[C@H](CO)[C@@H](O)[C@H](O)[C@H]1O` [Gentiopicroside] were 0.1, “No” and 59,804.7.
Regarding `CC(C)=CCC/C(C)=C/CO` [Geraniol], the Outgrowth in test [1] was 0.1. Also, in test [2], the “Yeast CLS increase” value is recorded as “No” and the PI intensity is recorded as 76,340.1.
The matching figures for `Cl.N[C@H]1C(O)O[C@H](CO)[C@@H](O)[C@@H]1O` (some centres unmarked) [Glucosamine (hydrochloride)]: 0.1, “No” and 65,905.5.
With `CC(CCC(=O)NCC(=O)O)C1CCC2C3CCC4CC(O)CCC4(C)C3CC(O)C12C` (centres unmarked) [Glycodeoxycholic acid (monohydrate)], the Outgrowth in test [1] turned out to be 0.1. The “Yeast CLS increase” value in test [2] is listed as “No”. Further, the PI intensity in test [2] ((monohydrate)) is reported as 73,459.3.
With `C[C@H](CCC(=O)NCC(=O)O)[C@H]1CC[C@H]2[C@@H]3[C@@H](O)C[C@@H]4C[C@H](O)CC[C@]4(C)[C@H]3CC[C@]12C` [Glycoursodeoxycholic acid], the Outgrowth in test [1] worked out at 0.1. For the same compound, in test [2], the “Yeast CLS increase” value is listed as “No” and the PI intensity is 64,205.2.
Compound `Cc1cc2c(C(C)C)c(O)c(O)c(C=O)c2c(O)c1-c1c(C)cc2c(C(C)C)c(O)c(O)c(C=O)c2c1O` [Gossypol] came in with an Outgrowth in test [1] of 0.1. In test [2], the PI intensity was 65,220.1.
In the case of `Cc1ccc(C(C)C)cc2c(C)ccc1-2` [Guaiazulene], the Outgrowth in test [1] was determined as 0.1. Moreover, in test [2], the “Yeast CLS increase” value is recorded as “No” and the PI intensity is given as 58,776.1.
For the compound `C/C=C1\C(=O)C[C@H]2[C@@H]3CCC4=CC(=O)CC[C@]4(C)[C@H]3CC[C@]12C` [Guggulsterone], in test [1], the Outgrowth came to 0.1. In addition, in test [2], the “Yeast CLS increase” value is recorded as “No” and the PI intensity was 63,881.9.
Compound `C[C@@H]1O[C@@H](O[C@H]2[C@H](O[C@H]3CC[C@@]4(C)[C@@H](CC[C@]5(C)[C@@H]4CC=C4[C@@H]6CC(C)(C)CC[C@]6(C(=O)O[C@@H]6O[C@H](CO[C@@H]7O[C@H](CO)[C@@H](O[C@@H]8O[C@@H](C)[C@H](O)[C@@H](O)[C@H]8O)[C@H](O)[C@H]7O)[C@@H](O)[C@H](O)[C@H]6O)CC[C@]45C)[C@]3(C)CO)OC[C@H](O)[C@@H]2O)[C@H](O)[C@H](O)[C@H]1O` [Hederacoside C] registered an Outgrowth in test [1] of 0.1. Moreover, in test [2], the “Yeast CLS increase” value is “No” and the PI intensity is recorded as 73,515.9.

These data come from patent US20250161338A1, “Compounds for Anti-aging Intervention” (AGENCY FOR SCIENCE, TECHNOLOGY AND RESEARCH, priority 2022, published 2025).
